{"source": "patent US20020111274A1", "about": "“1-alkyl-3-[1-(substituted phenyl) benzotriazol-6-yl] uracils” (BASF Aktiengesellschaft, priority 2000, published 2002)", "parameters_in_all_cases": "scale not given here", "key": {"ECHOG Barnyardgrass": {"system": "ECHOG Barnyardgrass", "assay": "Postemergence herbicidal evaluation, ECHOG", "format": "in vivo, Echinochloa crus-galli, (L.) Beau", "conditions": "postemergence spray, rated about two-three weeks after treatment", "method_in_brief": "(§1)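 Seedlings grown about two weeks were sprayed with compound in 80/20 acetone/water containing 1.0% methylated seed oil, at the equivalent of about 0.006 to 0.400 kg/ha, through a nozzle at 40 psi. Plants were kept in the greenhouse and rated visually about two to three weeks after treatment.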"}, "GALAP Galium [1]": {"system": "GALAP Galium", "assay": "Preemergence herbicidal evaluation, GALAP", "format": "in vivo, Galium aparine", "conditions": "preemergence", "method_in_brief": "(§2)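 Compound applied preemergence as an aqueous acetone spray onto freshly planted cups, dose equivalent approx. 0.013 to 0.800 kg/ha. Evaluation by rating at weeks 4–5.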"}, "ABUTH Velvetleaf": {"system": "ABUTH Velvetleaf", "assay": "Postemergence herbicidal evaluation, ABUTH", "format": "in vivo, Abutilon theophrasti, Medic.", "conditions": "postemergence spray, rated about two-three weeks after treatment", "method_in_brief": "as §1"}, "[2]": {"system": "TRZAWR Wheat, Winter, cv Riband", "assay": "Preemergence herbicidal evaluation, TRZAWR", "format": "in vivo, Triticum aestivum", "conditions": "preemergence", "method_in_brief": "as §2"}, "[3]": {"system": "CHEAL Lambsquarters, Common", "assay": "Preemergence herbicidal evaluation, CHEAL", "format": "in vivo, Chenopodium album, L.", "conditions": "preemergence", "method_in_brief": "as §2"}, "[4]": {"system": "CHEAL Lambsquarters, Common", "assay": "Postemergence herbicidal evaluation, CHEAL", "format": "in vivo, Chenopodium album, L.", "conditions": "postemergence spray, rated about two-three weeks after treatment", "method_in_brief": "as §1"}, "ZEAMX Corn, Field": {"system": "ZEAMX Corn, Field", "assay": "Postemergence herbicidal evaluation, ZEAMX", "format": "in vivo, Zea mays, L. (Sammel-Bezeichnung)", "conditions": "postemergence spray, rated about two-three weeks after treatment", "method_in_brief": "as §1"}, "GALAP Galium [5]": {"system": "GALAP Galium", "assay": "Postemergence herbicidal evaluation, GALAP", "format": "in vivo, Galium aparine", "conditions": "postemergence spray, rated about two-three weeks after treatment", "method_in_brief": "as §1"}, "[6]": {"system": "IPOHE Morningglory, Ivyleaf", "assay": "Postemergence herbicidal evaluation, IPOHE", "format": "in vivo, Ipomoea hederacea, (L.) Jacq.", "conditions": "postemergence spray, rated about two-three weeks after treatment", "method_in_brief": "as §1"}, "GLXMAW Soybean, Williams": {"system": "GLXMAW Soybean, Williams", "assay": "Postemergence herbicidal evaluation, GLXMAW", "format": "in vivo, Glycine max, (L.) Merr. cv Williams", "conditions": "postemergence spray, rated about two-three weeks after treatment", "method_in_brief": "as §1"}, "SETVI Foxtail, Green": {"system": "SETVI Foxtail, Green", "assay": "Preemergence herbicidal evaluation, SETVI", "format": "in vivo, Setaria viridis, (L.) Beau", "conditions": "preemergence", "method_in_brief": "as §2"}, "CASOB Sicklepod": {"system": "CASOB Sicklepod", "assay": "Preemergence herbicidal evaluation, CASOB", "format": "in vivo, Cassia obtusifolia, L.", "conditions": "preemergence", "method_in_brief": "as §2"}}}
{"smiles": "CCc1ccc(-n2nnc3cc(F)c(-n4c(=O)cc(C(F)(F)F)n(C)c4=O)cc32)cc1COC", "note": "[Example 28]", "values": [{"measurement": "Postemergence herbicidal rating ECHCG", "setting": "ECHOG Barnyardgrass; 0.008 kg/ha", "result": 0.0}, {"measurement": "Postemergence herbicidal rating ECHCG", "setting": "ECHOG Barnyardgrass; 0.016 kg/ha", "result": 0.0}, {"measurement": "Postemergence herbicidal rating ECHCG", "setting": "ECHOG Barnyardgrass; 0.032 kg/ha", "result": 1.0}, {"measurement": "Postemergence herbicidal rating ECHCG", "setting": "ECHOG Barnyardgrass; 0.062 kg/ha", "result": 1.0}, {"measurement": "GALAP herbicidal rating", "setting": "GALAP Galium [1]; rate 0.016 kg/ha", "result": 0.0}, {"measurement": "GALAP herbicidal rating", "setting": "GALAP Galium [1]; rate 0.032 kg/ha", "result": 0.0}, {"measurement": "GALAP herbicidal rating", "setting": "GALAP Galium [1]; rate 0.062 kg/ha", "result": 0.0}, {"measurement": "GALAP herbicidal rating", "setting": "GALAP Galium [1]; rate 0.125 kg/ha", "result": 9.0}, {"measurement": "Postemergence herbicidal rating ABUTH", "setting": "ABUTH Velvetleaf; 0.008 kg/ha", "result": 9.0}, {"measurement": "Postemergence herbicidal rating ABUTH", "setting": "ABUTH Velvetleaf; 0.016 kg/ha", "result": 9.0}, {"measurement": "Postemergence herbicidal rating ABUTH", "setting": "ABUTH Velvetleaf; 0.032 kg/ha", "result": 9.0}, {"measurement": "Postemergence herbicidal rating ABUTH", "setting": "ABUTH Velvetleaf; 0.062 kg/ha", "result": 9.0}, {"measurement": "TRZAWR herbicidal rating", "setting": "[2]; rate 0.016 kg/ha", "result": 0.0}, {"measurement": "TRZAWR herbicidal rating", "setting": "[2]; rate 0.032 kg/ha", "result": 0.0}, {"measurement": "TRZAWR herbicidal rating", "setting": "[2]; rate 0.062 kg/ha", "result": 0.0}, {"measurement": "TRZAWR herbicidal rating", "setting": "[2]; rate 0.125 kg/ha", "result": 0.0}, {"measurement": "CHEAL herbicidal rating", "setting": "[3]; rate 0.016 kg/ha", "result": 3.0}, {"measurement": "CHEAL herbicidal rating", "setting": "[3]; rate 0.032 kg/ha", "result": 9.0}, {"measurement": "CHEAL herbicidal rating", "setting": "[3]; rate 0.062 kg/ha", "result": 9.0}, {"measurement": "CHEAL herbicidal rating", "setting": "[3]; rate 0.125 kg/ha", "result": 9.0}, {"measurement": "Postemergence herbicidal rating CHEAL", "setting": "[4]; 0.008 kg/ha", "result": 2.0}, {"measurement": "Postemergence herbicidal rating CHEAL", "setting": "[4]; 0.016 kg/ha", "result": 4.0}, {"measurement": "Postemergence herbicidal rating CHEAL", "setting": "[4]; 0.032 kg/ha", "result": 7.0}, {"measurement": "Postemergence herbicidal rating CHEAL", "setting": "[4]; 0.062 kg/ha", "result": 9.0}, {"measurement": "Postemergence herbicidal rating ZEAMX", "setting": "ZEAMX Corn, Field; 0.008 kg/ha", "result": 3.5}, {"measurement": "Postemergence herbicidal rating ZEAMX", "setting": "ZEAMX Corn, Field; 0.016 kg/ha", "result": 6.0}, {"measurement": "Postemergence herbicidal rating ZEAMX", "setting": "ZEAMX Corn, Field; 0.032 kg/ha", "result": 6.0}, {"measurement": "Postemergence herbicidal rating ZEAMX", "setting": "ZEAMX Corn, Field; 0.062 kg/ha", "result": 7.5}, {"measurement": "Postemergence herbicidal rating GALAP", "setting": "GALAP Galium [5]; 0.008 kg/ha", "result": 4.0}, {"measurement": "Postemergence herbicidal rating GALAP", "setting": "GALAP Galium [5]; 0.016 kg/ha", "result": 4.0}, {"measurement": "Postemergence herbicidal rating GALAP", "setting": "GALAP Galium [5]; 0.032 kg/ha", "result": 6.0}, {"measurement": "Postemergence herbicidal rating GALAP", "setting": "GALAP Galium [5]; 0.062 kg/ha", "result": 8.0}, {"measurement": "Postemergence herbicidal rating IPOHE", "setting": "[6]; 0.008 kg/ha", "result": 9.0}, {"measurement": "Postemergence herbicidal rating IPOHE", "setting": "[6]; 0.016 kg/ha", "result": 9.0}, {"measurement": "Postemergence herbicidal rating IPOHE", "setting": "[6]; 0.032 kg/ha", "result": 9.0}, {"measurement": "Postemergence herbicidal rating IPOHE", "setting": "[6]; 0.062 kg/ha", "result": 9.0}, {"measurement": "Postemergence herbicidal rating GLXMAW", "setting": "GLXMAW Soybean, Williams; 0.008 kg/ha", "result": 4.0}, {"measurement": "Postemergence herbicidal rating GLXMAW", "setting": "GLXMAW Soybean, Williams; 0.016 kg/ha", "result": 5.0}, {"measurement": "Postemergence herbicidal rating GLXMAW", "setting": "GLXMAW Soybean, Williams; 0.032 kg/ha", "result": 6.0}, {"measurement": "Postemergence herbicidal rating GLXMAW", "setting": "GLXMAW Soybean, Williams; 0.062 kg/ha", "result": 6.5}, {"measurement": "SETVI herbicidal rating", "setting": "SETVI Foxtail, Green; rate 0.016 kg/ha", "result": 0.0}, {"measurement": "SETVI herbicidal rating", "setting": "SETVI Foxtail, Green; rate 0.032 kg/ha", "result": 2.0}, {"measurement": "SETVI herbicidal rating", "setting": "SETVI Foxtail, Green; rate 0.062 kg/ha", "result": 4.0}, {"measurement": "SETVI herbicidal rating", "setting": "SETVI Foxtail, Green; rate 0.125 kg/ha", "result": 9.0}, {"measurement": "CASOB herbicidal rating", "setting": "CASOB Sicklepod; rate 0.016 kg/ha", "result": 0.0}, {"measurement": "CASOB herbicidal rating", "setting": "CASOB Sicklepod; rate 0.032 kg/ha", "result": 0.0}, {"measurement": "CASOB herbicidal rating", "setting": "CASOB Sicklepod; rate 0.062 kg/ha", "result": 0.0}]}
